In the Deep4Chem optical property database:
Each block holds one compound with its values, some of them ahead of it.

Assay: photoluminescence quantum yield (fraction); solvent given as SMILES

Structure (SMILES): CN(C)CCN(Cc1c2ccccc2cc2ccccc12)c1ccc([N+](=O)[O-])cc1[N+](=O)[O-]
- photoluminescence quantum yield (in C1CCCCC1): 0.0001
- photoluminescence quantum yield (in C1CCOC1): 0.0004
- photoluminescence quantum yield (in CC#N): 0.0185
- photoluminescence quantum yield (in CC(C)=O): 0.0043
- photoluminescence quantum yield (in CCO): 0.0087
- photoluminescence quantum yield (in CN(C)C=O): 0.0293
- photoluminescence quantum yield (in CO): 0.0093
- photoluminescence quantum yield (in CS(C)=O): 0.0426
- photoluminescence quantum yield (in ClC(Cl)Cl): 0.0009
- photoluminescence quantum yield (in ClCCl): 0.0057

Structure (SMILES): CCOC(=O)c1ccc2c(c1)n(C)c1c3ccc(C(=O)OCC)cc3n(C)c21
- photoluminescence quantum yield (in CCCO): 0.53

Structure (SMILES): COc1ccc(/C=C(\C)c2nc3ccccc3o2)cc1
- photoluminescence quantum yield (in C1CCCCC1): 0.002

Structure (SMILES): CCCCC1(CCCC)c2cc(C#Cc3ccc(C=C4c5ccccc5CCc5ccccc54)cc3)ccc2-c2ccc(C#Cc3ccc(C=C4c5ccccc5CCc5ccccc54)cc3)cc21
- photoluminescence quantum yield (in C1CCOC1): 0.027

Structure (SMILES): Clc1ccc2cc3cccc[n+]3cc2c1
- photoluminescence quantum yield (in O): 0.2

Structure (SMILES): O=C1C(=c2c(=O)c3c4ccccc4cc4cc5ccccc5c2c43)C(=O)c2ccccc21
- photoluminescence quantum yield (in C1CCOC1): 0.235
- photoluminescence quantum yield (in CC#N): 0.09
- photoluminescence quantum yield (in CCCCCC): 0.292
- photoluminescence quantum yield (in Cc1ccccc1): 0.268
- photoluminescence quantum yield (in ClCCl): 0.193

Structure (SMILES): CN(C)c1ccc2cc3ccc(=[N+](C)C)cc-3oc2c1
- photoluminescence quantum yield (in CCO): 0.48
- photoluminescence quantum yield (in O): 0.38

Structure (SMILES): COC(=O)C(NC(=O)OC(C)(C)C)c1ccc2oc(-c3ccc(OC(=O)c4ccccc4)cc3O)nc2c1 (configuration not stated)
- photoluminescence quantum yield (in CC1CCCCC1): 0.03
- photoluminescence quantum yield (in CC#N): 0.01
- photoluminescence quantum yield (in CO): 0.003

Structure (SMILES): F[B-]1(F)OC(c2ccc(Br)cc2)=Cc2ccc3ccccc3[n+]21
- photoluminescence quantum yield (in ClC(Cl)Cl): 0.49

Structure (SMILES): CCOC(=O)/C=C/C1=C(c2ccc(C)cc2)C2=Nc3c(-c4ccc(C)cc4)c(Br)c(-c4ccc(C)cc4)n3[B-](F)(F)[N+]2=C1c1ccc(C)cc1
- photoluminescence quantum yield (in ClC(Cl)Cl): 0.03

Structure (SMILES): COc1ccc(C(=Cc2ccc(/C=C/c3ccc(C#N)cc3)cc2)c2ccc(OC)cc2)cc1
- photoluminescence quantum yield (in C1CCOC1): 0.03

Structure (SMILES): c1ccc(-c2nc3c4ccccc4c4ccccc4c3n2-c2cccc(-c3nc4c5ccccc5c5ccccc5c4n3-c3ccccc3)c2)cc1
- photoluminescence quantum yield (in Cc1ccccc1): 0.75

Structure (SMILES): CCOC(=O)CN(CC(=O)OCC)c1ccc(-c2cc(-c3cccnc3)nc(-c3cccnc3)c2)cc1
- photoluminescence quantum yield (in CC#N): 0.57
- photoluminescence quantum yield (in CCOC(C)=O): 0.69
- photoluminescence quantum yield (in CN(C)C=O): 0.53
- photoluminescence quantum yield (in CS(C)=O): 0.51
- photoluminescence quantum yield (in c1ccccc1): 0.77

Continued, values first:

- photoluminescence quantum yield (in ClCCl): 0.86
Structure (SMILES): COC(=O)C1=C(C(=O)OC)C2=C[C@H]3c4ccccc4[C@]2([Se]1)c1ccccc13

- photoluminescence quantum yield (in CCCCCC): 0.434
Structure (SMILES): CCOC(=O)c1cc(C)n2nc(-c3ccccc3)ccc12

- photoluminescence quantum yield (in ClCCl): 0.04
Structure (SMILES): CC1=[N+]2C(=Cc3c4c(cn3[B-]2(F)F)-c2nc-4c(-c3ccccc3)c3ccc([nH]3)c(-c3ccccc3)c3nc(c(-c4ccccc4)c4ccc([nH]4)c2-c2ccccc2)C=C3)C(C)C1 (configuration not stated)

- photoluminescence quantum yield (in CC#N): 0.645
- photoluminescence quantum yield (in CCCCCC): 0.51
- photoluminescence quantum yield (in CO): 0.214
- photoluminescence quantum yield (in ClC(Cl)Cl): 0.627
Structure (SMILES): c1cc2ccc3cccc4c(-c5cc(-c6nccs6)nc(-c6nccs6)c5)cc(c1)c2c34

- photoluminescence quantum yield (in CN(C)C=O): 0.98
Structure (SMILES): O=C1NC(=O)c2ccc3c4ccc5c6c(ccc(c7ccc1c2c73)c64)C(=O)N(c1ccc(Cl)cc1)C5=O

- photoluminescence quantum yield (in CC1CCCO1): 0.83
Structure (SMILES): O=S1(=O)c2ccc(-c3ccc4c(c3)c3ccccc3n4-c3ccccc3)cc2C2(c3cc(-c4ccc5c(c4)c4ccccc4n5-c4ccccc4)ccc31)c1cc(-c3ccc4c(c3)c3ccccc3n4-c3ccccc3)ccc1S(=O)(=O)c1ccc(-c3ccc4c(c3)c3ccccc3n4-c3ccccc3)cc12
